This is an account of results in US20100222349A1, “QUINOLINE DERIVATIVES USED TO TREAT INFLAMMATORY AND ALLERGIC DISEASES” (Glaxo Group Limited, priority 2007, published 2010).

The target in one assay is T1, histamine H3 receptor (Homo sapiens, UniProt Q9Y5N1).
T1 construct: expressed in transfected cells; host or cells: CHO K1 cells with pSwitch/pGeneH3 (GeneSwitch, mifepristone-induced), clone 3H3; membrane preparation
Put plainly: Histamine H3 functional antagonist assay (GTPγS, membranes). Type of assay: biochemical. Conditions: CHO K1 membranes, [35S]-GTPγS, histamine at EC80; read-out: average pKi (pKb) at H3 (converted). The essentials: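 Membranes came from CHO K1 cells with mifepristone-inducible (10 nM, 18 h) human H3 receptor expression, clone 3H3. Test compounds in DMSO were combined with WGA polystyrene LeadSeeker SPA beads, membranes and GDP.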
Background: Binding of GTPγS marks nucleotide exchange on a G protein.

The next assay addresses T2, human H1 receptor (Homo sapiens, UniProt P35367).
T2 construct: expressed in transfected cells
Put plainly: Histamine H1 functional antagonist assay: determination of functional pKi values (FLIPR). Type of assay: cell-based. The following applies: CHO cells expressing human H1 receptor, histamine at EC80, read-out: average pKi (pKb) at H1 (converted). The procedure, abridged: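 Functional affinities come from concentration-effect curves of inhibited histamine (EC80) calcium responses read by FLIPR. Compound sat 30 min at 37° C on Fluo-4-loaded CHO cells stably expressing human H1 receptor, in probenecid-containing Tyrodes buffer, pH 7.40.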

T2 sequence (P35367 whole entry): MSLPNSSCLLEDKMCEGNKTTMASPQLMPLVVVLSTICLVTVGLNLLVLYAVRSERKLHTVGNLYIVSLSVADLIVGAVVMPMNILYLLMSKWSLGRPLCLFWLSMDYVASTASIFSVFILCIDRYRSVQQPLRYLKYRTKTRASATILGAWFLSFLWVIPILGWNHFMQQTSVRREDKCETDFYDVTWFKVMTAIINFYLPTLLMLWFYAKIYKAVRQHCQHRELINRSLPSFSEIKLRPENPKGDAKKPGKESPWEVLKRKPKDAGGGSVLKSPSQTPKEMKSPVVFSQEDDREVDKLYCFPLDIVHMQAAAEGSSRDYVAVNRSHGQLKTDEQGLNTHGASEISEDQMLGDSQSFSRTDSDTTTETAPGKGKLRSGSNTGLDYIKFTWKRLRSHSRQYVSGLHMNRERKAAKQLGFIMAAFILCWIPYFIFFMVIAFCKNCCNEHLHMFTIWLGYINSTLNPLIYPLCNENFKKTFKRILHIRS
T1 sequence (Q9Y5N1 whole entry, species assumed): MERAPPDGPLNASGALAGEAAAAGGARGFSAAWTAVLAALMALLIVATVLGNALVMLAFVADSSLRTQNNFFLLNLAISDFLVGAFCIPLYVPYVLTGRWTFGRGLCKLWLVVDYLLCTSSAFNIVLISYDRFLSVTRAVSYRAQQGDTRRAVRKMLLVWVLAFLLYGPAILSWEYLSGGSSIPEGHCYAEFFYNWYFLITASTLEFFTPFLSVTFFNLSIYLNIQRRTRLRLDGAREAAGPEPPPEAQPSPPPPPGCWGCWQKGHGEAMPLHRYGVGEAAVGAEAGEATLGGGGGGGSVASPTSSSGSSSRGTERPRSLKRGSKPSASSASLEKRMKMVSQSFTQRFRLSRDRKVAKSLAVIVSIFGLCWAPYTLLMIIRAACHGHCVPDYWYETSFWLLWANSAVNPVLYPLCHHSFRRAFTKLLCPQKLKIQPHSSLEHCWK

For the compound `CCCCc1cc(OC2CCN(CCC3CCN(C(=O)CC)CC3)CC2)c2ncccc2c1` [Example 4, 6-Butyl-8-({1-[2-(1-propanoyl-4-piperidinyl)ethyl]-4-piperidinyl}oxy)quinoline], the Ki at histamine H3 receptor is above 316 nM; at human H1 receptor, below 100 nM.

In the case of `CCCCc1cc(O[C@H]2CCN(CCCC(=O)N3CCCCC3)C2)c2ncccc2c1` [Example 39, 6-butyl-8-({(3S)-1-[4-oxo-4-(1-piperidinyl)butyl]-3-pyrrolidinyl}oxy)quinoline], the Ki was above 316 nM at histamine H3 receptor and below 10 nM on human H1 receptor.

As to `CCCCc1cc(OC2CCN(CCCCNC(=O)C(C)(C)C)CC2)c2ncccc2c1` [Example 67, N-(4-{4-[(6-butyl-8-quinolinyl)oxy]-1-piperidinyl}butyl)-2,2-dimethyl propanamide], the Ki is above 316 nM on histamine H3 receptor and below 10 nM on human H1 receptor.

As to `CCCCc1cc(OC2CCN(C[C@H]3CC[C@H](C(=O)Nc4ccc(C)cc4)CC3)CC2)c2ncccc2c1` [Example 59, trans-4-({4-[(6-butyl-8-quinolinyl)oxy]-1-piperidinyl}methyl)-N-(4-methylphenyl) cyclohexane carboxamide], the Ki at histamine H3 receptor is above 316 nM; at human H1 receptor, below 100 nM.

In the case of `CCCCc1cc(OC2CCN(CCC3CCN(C(C)=O)CC3)CC2)c2ncccc2c1` [Example 3, 8-({1-[2-(1-Acetyl-4-piperidinyl)ethyl]-4-piperidinyl}oxy)-6-butylquinoline], the Ki on histamine H3 receptor is above 316 nM; at human H1 receptor, below 100 nM.

`CCCCc1cc(OC2CCN(CCCNC(=O)CCCOC)CC2)c2ncccc2c1` [Example 83, N-(3-{4-[(6-butyl-8-quinolinyl)oxy]-1-piperidinyl}propyl)-4-(methyloxy) butanamide]: the results for the Ki on histamine H3 receptor and on human H1 receptor were above 316 nM and below 100 nM, respectively.

With `CCCCc1cc(OC2CCN(CCNC(=O)CCOC)CC2)c2ncccc2c1` [Example 80, N-(2-{4-[(6-butyl-8-quinolinyl)oxy]-1-piperidinyl}ethyl)-3-(methyloxy) propanamide], the Ki was above 316 nM on histamine H3 receptor and below 10 nM on human H1 receptor.

As for `CCCCc1cc(OC2CCN(CCCC(=O)N3CCCCC3)CC2)c2ncccc2c1` [Example 24, 6-butyl-8-({1-[4-oxo-4-(1-piperidinyl)butyl]-4-piperidinyl}oxy)quinoline], the values for the Ki on histamine H3 receptor and on human H1 receptor were above 3160 nM and below 100 nM, respectively.

With `CCCCc1cc(OC2CCN(CCCCCNC(=O)CC)CC2)c2ncccc2c1` [Example 77, N-(5-{4-[(6-butyl-8-quinolinyl)oxy]-1-piperidinyl}pentyl) propanamide], the Ki at histamine H3 receptor was above 316 nM; at human H1 receptor, below 10 nM.

As to `CCCCc1cc(OC2CCN(CCCCNC(=O)CCC)CC2)c2ncccc2c1` [Example 65, N-(4-{4-[(6-butyl-8-quinolinyl)oxy]-1-piperidinyl}butyl) butanamide], the values for the Ki on histamine H3 receptor and at human H1 receptor were above 316 nM and below 10 nM, respectively.

`CCCCc1cc(OC2CCN(CC(=O)N3CCCCC3)CC2)c2ncccc2c1` [Example 13, 6-butyl-8-({1-[2-oxo-2-(1-piperidinyl)ethyl]-4-piperidinyl}oxy) quinoline]: the figures for the Ki on histamine H3 receptor and on human H1 receptor were above 3160 nM and below 100 nM, respectively.

In the case of `CCCCc1cc(OC2CCN(CCCCNC(C)=O)CC2)c2ncccc2c1` [Example 79, N-(4-{4-[(6-Butyl-8-quinolinyl)oxy]-1-piperidinyl}butyl)acetamide], the Ki was above 316 nM on histamine H3 receptor and below 10 nM at human H1 receptor.

Take `CCCCc1cc(OC2CCN(CC(=O)NC(C)C)CC2)c2ncccc2c1` [Example 14, 2-{4-[(6-butyl-8-quinolinyl)oxy]-1-piperidinyl}-N-(1-methylethyl)acetamide]: the Ki at histamine H3 receptor was above 3160 nM; on human H1 receptor, below 100 nM.

As to `CCCCCCc1cc(OC2CCN(C[C@H]3CC[C@H](C(=O)N4CCCCC4)CC3)CC2)c2ncccc2c1` [Example 51, 6-hexyl-8-[(1-{[trans-4-(1-piperidinylcarbonyl)cyclohexyl]methyl}-4-piperidinyl)oxy]quinoline], the Ki was above 316 nM at histamine H3 receptor and below 100 nM at human H1 receptor.
